This is an account of results in patent US7368576B2, “Dipeptidyl peptidase IV inhibitors and their uses as anti-cancer agents” (Probiodrug AG, priority 2001, dated 2008).

Common to all, as to type: biochemical
One test deals with purified porcine DPIV (Sus scrofa, UniProt P22411). Description: Determination of IC50 values, DPIV (Gly-Pro-pNA). To be noted: Gly-Pro-pNA 0.4 mM, HEPES pH7.6, 30° C. The protocol: 100 μl inhibitor stock solution were mixed with 100 μl buffer (HEPES pH7.6) and 50 μl substrate (Gly-Pro-pNA, final concentration 0.4 mM) and preincubated at 30° C. Reaction was started by addition of 20 μl purified porcine DPIV. Formation of the product pNA was measured at 405 nm over 10 min using the HTS 7000Plus plate reader (Perkin Elmer) and slopes were calculated. The final inhibitor concentrations ranged between 1 mM and 30 nM. For calculation of IC50 GraFit 4.0.13 (Erithacus Software) was used.

Test [1] has as its target T1, dipeptidyl peptidase IV from porcine kidney (Sus scrofa, UniProt P22411).
T1 construct: dipeptidyl peptidase IV from porcine kidney; from tissue; host or cells: porcine kidney
The test is described as follows: Ki determination, DPIV inhibition (glycylprolyl-4-nitroaniline). To be noted: HEPES pH7.6, 30° C.

For test [2], the target named is T2, Dipeptidyl Peptidase I (DP I, Cathepsin C) (Rattus norvegicus, UniProt P80067).
T2 construct: purchased Qiagen GmbH, Hilden, Germany
T2 sequence (P80067 25-462): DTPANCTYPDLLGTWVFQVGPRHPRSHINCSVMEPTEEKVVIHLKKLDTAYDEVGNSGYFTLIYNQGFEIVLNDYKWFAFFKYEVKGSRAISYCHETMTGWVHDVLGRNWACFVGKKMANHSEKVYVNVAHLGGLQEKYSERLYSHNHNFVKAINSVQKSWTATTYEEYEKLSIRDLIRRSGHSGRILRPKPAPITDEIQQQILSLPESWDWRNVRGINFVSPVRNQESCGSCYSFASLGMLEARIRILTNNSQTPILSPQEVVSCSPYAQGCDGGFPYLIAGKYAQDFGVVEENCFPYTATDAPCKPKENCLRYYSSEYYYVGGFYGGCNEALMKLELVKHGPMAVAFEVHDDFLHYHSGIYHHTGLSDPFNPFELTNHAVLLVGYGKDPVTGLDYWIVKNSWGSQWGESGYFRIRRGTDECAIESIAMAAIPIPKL
Description: Cross reacting enzymes: dipeptidyl peptidase I. To be noted: concentration range 1*10^−5 M-1*10^−7 M. Here is the method: DP I or cathepsin C is a lysosomal cysteine protease which cleaves off dipeptides from the N-terminus of their substrates (Gutman, H. R. & Fruton, J. S., 1948, J. Biol: Chem., 174, 851-858). It is classified as a cysteine protease. The enzyme used was purchased from Qiagen (Qiagen GmbH, Hilden, Germany). In order to get a fully active enzyme, the enzyme was diluted 1000fold in MES buffer pH5.6 (40 mM MES, 4 mM DTT, 4 mM KCl, 2 mM EDTA, 0.015% Brij) and pre-incubated for 30 min at 30° C.
50 μl glutaminyl pyrrolidine or glutaminyl thiazolidine in a concentration range of 1*10^−5 M-1*10^−7 M were admixed with 110 μl buffer-enzyme-mixture. The assay mixture was pre-incubated at 30° C. for 15 min. After pre-incubation, 100 μl histidylseryl-β-nitroaniline (2*10^-5M) was added and measurement of yellow color development due to β-nitroaniline release was performed at 30° C. and […] for 10 min., using a plate reader (HTS7000 plus, Applied Biosystems, Weiterstadt, Germany).
The IC50-values were calculated using Graphit 4.0.15 (Erithacus Software, Ltd., UK).

Test [3] deals with T3, Prolidase from porcine kidney (Sus scrofa, UniProt A0A5G2QQV1).
T3 construct: Prolidase from porcine kidney; purchased ICN Biomedicals, Eschwege, Germany; host or cells: porcine kidney
T3 sequence (A0A5G2QQV1 1-463): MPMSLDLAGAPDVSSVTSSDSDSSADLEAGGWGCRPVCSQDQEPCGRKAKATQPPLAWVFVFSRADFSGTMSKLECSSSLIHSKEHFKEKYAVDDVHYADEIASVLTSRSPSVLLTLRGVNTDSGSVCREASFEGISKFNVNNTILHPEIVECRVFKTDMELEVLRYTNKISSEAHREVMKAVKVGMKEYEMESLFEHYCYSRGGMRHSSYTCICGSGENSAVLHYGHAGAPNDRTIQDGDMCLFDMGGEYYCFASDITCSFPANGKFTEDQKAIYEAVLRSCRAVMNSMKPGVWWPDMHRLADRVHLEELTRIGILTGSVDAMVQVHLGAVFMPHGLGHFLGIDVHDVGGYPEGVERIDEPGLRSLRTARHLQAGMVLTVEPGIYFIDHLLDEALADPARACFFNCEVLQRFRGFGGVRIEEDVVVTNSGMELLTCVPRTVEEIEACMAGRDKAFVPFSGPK
Description: Cross reacting enzymes: prolidase. To be noted: Ile-Pro-OH 0.5 mM, pH 7.6; read-out: IC50 against prolidase. Here is the method: Prolidase from porcine kidney (ICN Biomedicals, Eschwege, Germany) was solved (1 mg/ml) in assay buffer (20 mM NH4(CH3COO)2, 3 mM MnCl2, pH 7.6). In order to get a fully active enzyme the solution was incubated for 60 min at room temperature.
450 μl glutaminyl pyrrolidine or glutaminyl thiazolidine in an concentration range of 5*10^−3 M-5*10^−7 M were admixed with 500 μl buffer solution (20 mM […], pH 7.6) and 250 μl Ile-Pro-OH (0.5 mM in the assay mixture). The assay mixture was pre-incubated at 30° C. for 5 min. After pre-incubation, 75 μl Prolidase (1:10 diluted in assay buffer) were added and measurement was performed at 30° C. and λ=220 nm for 20 min using a UV/Vis photometer, UV1 (Thermo Spectronic, Cambridge, UK).
The IC 50-values were calculated using Graphit 4.0.15 (Erithacus Software, Ltd., UK).

Sequence of purified porcine DPIV (P22411 whole entry): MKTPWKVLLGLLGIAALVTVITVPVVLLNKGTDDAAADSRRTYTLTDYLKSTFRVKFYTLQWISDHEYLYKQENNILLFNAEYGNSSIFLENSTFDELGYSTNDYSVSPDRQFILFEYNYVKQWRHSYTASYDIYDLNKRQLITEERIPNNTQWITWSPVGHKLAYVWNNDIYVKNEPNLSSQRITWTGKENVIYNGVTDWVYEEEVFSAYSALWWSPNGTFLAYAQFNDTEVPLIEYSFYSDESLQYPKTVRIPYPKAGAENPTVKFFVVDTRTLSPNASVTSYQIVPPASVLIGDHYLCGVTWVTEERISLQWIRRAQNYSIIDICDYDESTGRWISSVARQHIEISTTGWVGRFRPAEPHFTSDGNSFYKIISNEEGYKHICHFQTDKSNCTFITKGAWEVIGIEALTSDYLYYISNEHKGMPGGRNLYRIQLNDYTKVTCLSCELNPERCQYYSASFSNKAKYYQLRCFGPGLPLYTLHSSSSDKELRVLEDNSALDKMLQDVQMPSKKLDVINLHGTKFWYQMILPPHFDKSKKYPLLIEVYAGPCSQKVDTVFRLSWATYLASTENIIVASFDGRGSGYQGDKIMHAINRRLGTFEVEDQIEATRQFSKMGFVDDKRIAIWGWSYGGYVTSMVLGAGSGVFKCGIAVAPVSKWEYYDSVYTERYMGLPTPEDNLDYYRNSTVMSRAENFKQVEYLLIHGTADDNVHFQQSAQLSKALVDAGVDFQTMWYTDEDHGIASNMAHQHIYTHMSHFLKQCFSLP
T1 sequence (P22411 whole entry): as above

As to `NC(=O)CCC(N)C(=O)N1CCCC1` (stereo not shown) [Gln-Pyrr, glutaminyl pyrrolidine], the IC50 at purified porcine DPIV was 15 µM; in test [3], 340 µM. The same compound came in with a Ki in test [1] of 2.26 µM. Besides, in test [2], the “inhibition of the DP I enzyme activity” value is recorded as “No inhibition”.
